Test results published in patent US20240018147A1, “SALT OF COMPOUND FOR DEGRADING BTK, CRYSTAL FORM THEREOF, AND USE THEREOF IN MEDICINE” (HAISCO PHARMACEUTICALS PTE. LTD., priority 2020, published 2024).
In brackets after ≈: the same amount, converted by molar mass.

How the values were obtained:
[1] = Crystal slurrying competition experiment of crystal forms; assay type: physicochemical; settings: room temperature; for relative stability of crystal forms from competition experiments: conclusion in words
Experimental: 6.2. Competitive experiments of crystal forms I, II and III of compound 1 were performed at room temperature to investigate the stability of the crystal forms in isopropyl acetate and a water/acetonitrile (v/v=1:1) solvent, and Competitive experiments of the crystal forms I and II of compound 3 were performed at room temperature to investigate the stability of the crystal forms in an ethanol/water (v/v=1:1) solvent and an acetone/water (v/v=1:1) solvent.

[2] = Pharmacokinetic test of dogs; assay type: in vivo; settings: Beagle dogs; for Having bioavailability or not / AUC(0-t): i.g. (10 mg/kg); for AUC(0-t): male, dog, po, plasma
Experimental: Experimental objective: in this experiment, a single dose of each test compound was administered to Beagle dogs intravenously and intragastrically, the concentrations of the test compounds in plasma of dogs were measured, and the pharmacokinetic characteristics and bioavailability of the test compounds in dogs were evaluated.
Experimental animal: male Beagle dogs (about 8-11 kg, […], 6 dogs/compound), purchased from Beijing Marshall Biotechnology Co. Ltd.
The animals were fasted but with water available for 14 to 18 hours one day before administration, and were fed 4 hours after administration.
Sampling: before and after administration, 1.0 ml of blood was taken from jugular veins, and placed in an EDTAK2 centrifuge tube. Centrifugation was carried out at 5000 rpm at 4° C. for 10 m, and the plasma was collected.
Time points for plasma collection in G1& G2 groups: 0, 5 min, 15 min, 30 mi 1 h, 2 h, 4 h, 6 h, 8 h, 10 h, […] and 24 h.
Before analysis and detection, all samples were stored at −80° C. The samples were detected by using HPLC-MS/MS.

[3] = Solubility in water at 25° C.; assay type: physicochemical
Experimental: 7. Solubility Data in Water at 25° C.

[4] = Chemical stability at high temperature (40° C.) and high humidity (RH 92.5%), purity by HPLC; assay type: physicochemical; settings: for Purity by HPLC, 0 day: 0 day (initial); for chemical stability: 40° C. and RH 92.5%, purity by HPLC, conclusion in words; for Purity by HPLC, 92.5% RH 30 days: high humidity 92.5% RH; for Purity by HPLC, 40° C. 30 days: high temperature 40° C.
Experimental: Samples were taken and tested at high temperature (40° C.) and under high humidity (RH 92.5%) respectively. The purity (represented by a percentage) was detected by HPLC.
With regard to methods for preparing test solutions and conditions for detecting purity by HPLC, reference was made to Tables 13, 14 and 15.

[5] = Stability of crystal form of compound 1 and compound 3 (XRD); assay type: physicochemical; settings: conclusion in words
Excerpt: 6.1. Stability of crystal form of compound 1 and compound 3.

[6] = listed as Amorphous form of compound 1
[7] = listed as Crystal form III of compound 1

In the case of `Nc1ncnc2c1c(-c1ccc(Oc3ccccc3)cc1)nn2C1CCN(C2CN(C3CN(c4ccc5c(c4)C(=O)N(C4CCC(=O)NC4=O)C5=O)C3)C2)CC1.O=C(O)/C=C\C(=O)O.O=C(O)/C=C\C(=O)O` (stereo not shown), the “Experimental XRD result after crystal slurrying competition” value (shortened to “Experimental XRD result”) ([1]; acetone/water (v/v = 1:1), 3 days) is reported as “Crystal form I” and the “Experimental XRD result” value ([1]; ethanol/water (v/v = 1:1), 3 days) is reported as “Crystal form I”.

For `Nc1ncnc2c1c(-c1ccc(Oc3ccccc3)cc1)nn2C1CCN(C2CN(C3CN(c4ccc5c(c4)C(=O)N(C4CCC(=O)NC4=O)C5=O)C3)C2)CC1` (stereo not shown) [5-[3-[3-[4-[4-amino-3-(4-phenoxyphenyl)pyrazolo[3,4-d]pyrimidin-1-yl]-1-piperidyl]azetidin-1-yl]azetidin-1-yl]-2-(2,6-dioxo-3-piperidyl)isoindoline-1,3-dione], the “Experimental XRD result” value ([1]; isopropyl acetate, 2 days) was “Crystal form III” and the “Experimental XRD result” value ([1]; water/acetonitrile (v/v = 1:1), 2 days) was “Crystal form III”.

For `Nc1ncnc2c1c(-c1ccc(Oc3ccccc3)cc1)nn2C1CCN(C2CN(C3CN(c4ccc5c(c4)C(=O)N(C4CCC(=O)NC4=O)C5=O)C3)C2)CC1` (stereo not shown) [Compound 1, 5-[3-[3-[4-[4-amino-3-(4-phenoxyphenyl)pyrazolo[3,4-d]pyrimidin-1-yl]-1-piperidyl]azetidin-1-yl]azetidin-1-yl]-2-(2,6-dioxo-3-piperidyl)isoindoline-1,3-dione], the “oral bioavailability in dogs” value ([2]; intragastric vs intravenous, conclusion in words) was “a certain level of oral bioavailability” and the solubility in water ([3]; conclusion in words) was “a certain level of solubility”.

With `Nc1ncnc2c1c(-c1ccc(Oc3ccccc3)cc1)nn2C1CCN(C2CN(C3CN(c4ccc5c(c4)C(=O)N(C4CCC(=O)NC4=O)C5=O)C3)C2)CC1.O=C(O)C[C@H](O)C(=O)O` [Compound 4, 5-[3-[3-[4-[4-amino-3-(4-phenoxyphenyl)pyrazolo[3,4-d]pyrimidin-1-yl]-1-piperidyl]azetidin-1-yl]azetidin-1-yl]-2-(2,6-dioxo-3-piperidyl)isoindoline-1,3-dione L-malate] the “improvement of solubility as compared with compound 1” value [3] was “more than 15 times” and the solubility [3] was 158 µg/mL.

In the case of `Nc1ncnc2c1c(-c1ccc(Oc3ccccc3)cc1)nn2C1CCN(C2CN(C3CN(c4ccc5c(c4)C(=O)N(C4CCC(=O)NC4=O)C5=O)C3)C2)CC1.O=C(O)CC(O)(CC(=O)O)C(=O)O` (stereo not shown) [Compound 5, 5-[3-[3-[4-[4-amino-3-(4-phenoxyphenyl)pyrazolo[3,4-d]pyrimidin-1-yl]-1-piperidyl]azetidin-1-yl]azetidin-1-yl]-2-(2,6-dioxo-3-piperidyl)isoindoline-1,3-dione citrate], the “Having bioavailability or not” value [2] is reported as “Yes”, the “increase of oral exposure amount as compared with compound 1” value (“increase of oral exposure amount” below) [2] is reported as “more than 2 times” and the AUC(0-t) [2] is reported as 59.5 ± 21 ng·h/mL. For the same compound, the “Purity by HPLC, 0 day” value [4] was 98.44%, the chemical stability [4] was “relatively good chemical stability” and the “Purity by HPLC, 92.5% RH 30 days” value [4] was 98.05%. For the same compound, the “improvement of solubility as compared with compound 1” value [3] was “more than 15 times” and the solubility [3] was 166 µg/mL.

With `Nc1ncnc2c1c(-c1ccc(Oc3ccccc3)cc1)nn2C1CCN(C2CN(C3CN(c4ccc5c(c4)C(=O)N(C4CCC(=O)NC4=O)C5=O)C3)C2)CC1.O=C(O)C(O)C(O)C(=O)O` [Compound 7, 5-[3-[3-[4-[4-amino-3-(4-phenoxyphenyl)pyrazolo[3,4-d]pyrimidin-1-yl]-1-piperidyl]azetidin-1-yl]azetidin-1-yl]-2-(2,6-dioxo-3-piperidyl)isoindoline-1,3-dione L-tartrate] the “Having bioavailability or not” value [2] was “Yes”, the “increase of oral exposure amount” value [2] was “more than 2 times” and the AUC(0-t) [2] was 95.5 ± 65 ng·h/mL. For the same compound, the “improvement of solubility as compared with compound 1” value [3] was “more than 15 times” and the solubility [3] was 143 µg/mL.

In the case of `Nc1ncnc2c1c(-c1ccc(Oc3ccccc3)cc1)nn2C1CCN(C2CN(C3CN(c4ccc5c(c4)C(=O)N(C4CCC(=O)NC4=O)C5=O)C3)C2)CC1.O=C(O)C(=O)O` (stereo not shown) [Compound 9, 5-[3-[3-[4-[4-amino-3-(4-phenoxyphenyl)pyrazolo[3,4-d]pyrimidin-1-yl]-1-piperidyl]azetidin-1-yl]azetidin-1-yl]-2-(2,6-dioxo-3-piperidyl)isoindoline-1,3-dione oxalate], the “Having bioavailability or not” value [2] is reported as “Yes”, the “increase of oral exposure amount” value [2] is reported as “more than 2 times” and the AUC(0-t) [2] is reported as 79.4 ± 20 ng·h/mL. The “Purity by HPLC, 0 day” value [4] was 98.67%, the chemical stability [4] was “relatively good chemical stability” and the “Purity by HPLC, 92.5% RH 30 days” value [4] was 98.28%. The “improvement of solubility as compared with compound 1” value [3] was “more than 15 times” and the solubility [3] was 346 µg/mL.

With `Nc1ncnc2c1c(-c1ccc(Oc3ccccc3)cc1)nn2C1CCN(C2CN(C3CN(c4ccc5c(c4)C(=O)N(C4CCC(=O)NC4=O)C5=O)C3)C2)CC1` (stereo not shown) [amorphous form of compound 1, 5-[3-[3-[4-[4-amino-3-(4-phenoxyphenyl)pyrazolo[3,4-d]pyrimidin-1-yl]-1-piperidyl]azetidin-1-yl]azetidin-1-yl]-2-(2,6-dioxo-3-piperidyl)isoindoline-1,3-dione] the “Having bioavailability or not” value [2] was “Yes”, the AUC(0-t) [2] was 26.9 ± 3.3 ng·h/mL and the “Purity by HPLC, 0 day” value [4, 6] was 98.88%. For the same compound, the chemical stability [4] was “relatively good chemical stability”, the “Purity by HPLC, 92.5% RH 30 days” value [4, 6] was 98.82% and the “Purity by HPLC, 40° C. 30 days” value [4, 6] was 98.85%. The “stability of crystal form” value [5] was “relatively good stability” and the solubility [3] was 9 µg/mL (≈ 12 µM).

In the case of `Nc1ncnc2c1c(-c1ccc(Oc3ccccc3)cc1)nn2C1CCN(C2CN(C3CN(c4ccc5c(c4)C(=O)N(C4CCC(=O)NC4=O)C5=O)C3)C2)CC1.O=C(O)/C=C\C(=O)O.O=C(O)/C=C\C(=O)O` (stereo not shown) [amorphous form of compound 3, 5-[3-[3-[4-[4-amino-3-(4-phenoxyphenyl)pyrazolo[3,4-d]pyrimidin-1-yl]-1-piperidyl]azetidin-1-yl]azetidin-1-yl]-2-(2,6-dioxo-3-piperidyl)isoindoline-1,3-dione dimaleate], the “stability of crystal form” value [5] is reported as “relatively good stability”.

In the case of `Nc1ncnc2c1c(-c1ccc(Oc3ccccc3)cc1)nn2C1CCN(C2CN(C3CN(c4ccc5c(c4)C(=O)N(C4CCC(=O)NC4=O)C5=O)C3)C2)CC1.O=C(O)/C=C\C(=O)O.O=C(O)/C=C\C(=O)O` (stereo not shown) [crystal form I of compound 3, 5-[3-[3-[4-[4-amino-3-(4-phenoxyphenyl)pyrazolo[3,4-d]pyrimidin-1-yl]-1-piperidyl]azetidin-1-yl]azetidin-1-yl]-2-(2,6-dioxo-3-piperidyl)isoindoline-1,3-dione dimaleate], the “Having bioavailability or not” value [2] is reported as “Yes”, the “increase of oral exposure amount” value [2] is reported as “more than 2 times” and the AUC(0-t) [2] is reported as 75.1 ± 50 ng·h/mL. The “Purity by HPLC, 0 day” value [4] was 99.85%, the chemical stability [4] was “relatively good chemical stability” and the “Purity by HPLC, 92.5% RH 30 days” value [4] was 99.76%. For the same compound, the “Purity by HPLC, 40° C. 30 days” value [4] was 99.74%, the “relative stability of crystal forms from competition experiments” value [1] was “most stable crystal form” and the “improvement of solubility as compared with compound 1” value [3] was “more than 15 times”. It also gave a solubility [3] of 172 µg/mL.

With `Nc1ncnc2c1c(-c1ccc(Oc3ccccc3)cc1)nn2C1CCN(C2CN(C3CN(c4ccc5c(c4)C(=O)N(C4CCC(=O)NC4=O)C5=O)C3)C2)CC1` (stereo not shown) [crystal form III of compound 1, 5-[3-[3-[4-[4-amino-3-(4-phenoxyphenyl)pyrazolo[3,4-d]pyrimidin-1-yl]-1-piperidyl]azetidin-1-yl]azetidin-1-yl]-2-(2,6-dioxo-3-piperidyl)isoindoline-1,3-dione] the “Purity by HPLC, 0 day” value [4, 7] was 99.41%, the “Purity by HPLC, 92.5% RH 30 days” value [4, 7] was 99.30% and the “Purity by HPLC, 40° C. 30 days” value [4, 7] was 99.28%. For the same compound, the “relative stability of crystal forms from competition experiments” value [1] was “most stable crystal form”.
